Counter-ions that a name gives are not always drawn. Like-named read-outs stand apart in the source and are kept apart here.
Tests used:
[1] = Hygroscopicity of crystal forms of salts (DVS, 25° C.); type: physicochemical; details: for Crystal form after DVS: 0% to 95% RH
Excerpt: According to the description of hygroscopic characteristics and the definition of hygroscopic weight gain in “9103 Guidelines for Hygroscopicity of Pharmaceuticals”, Chinese Pharmacopoeia, Volume IV, 2015 edition, the following are defined: • deliquescent: absorbing enough water to form a liquid; • extremely hygroscopic: having a hygroscopic weight gain of not less than 15%; • hygroscopic: having a hygroscopic weight gain of less than 15% and not less than 2%; • slightly hygroscopic: having a hygroscopic weight gain of less than 2% and not less than 0.2%; and • no or almost no hygroscopicity: having a hygroscopic weight gain of less than 0.2%.
Surface Measurement Systems intrinsic DVS was used at 25° C. The observed humidity ranged from 0% to 95%. The step was 10%. The criterion was that the mass change dM/dT for each step was less than 0.002%. TMAX was 360 min. Two cycles were carried out.

[2] = Stability of crystal forms of salts under influencing factors (illumination, high temperature, high humidity); type: physicochemical
Excerpt: The sampling and investigation period was 30 days.

[3] = type: physicochemical
Description: A salt-type sample was sealed with an aluminum foil bag and placed under the conditions of 25° C./60% RH and 40° C./75% RH, respectively, to investigate the stability.

[4] = Illumination (4500 Lux), 7 days, open
[5] = Illumination (4500 Lux), 14 days, open
[6] = Illumination (4500 Lux), 30 days, open
[7] = 25° C./60% RH, sealed aluminum foil bag
[8] = 40° C./75% RH, sealed aluminum foil bag
[9] = 25° C./60% RH, 1 month, sealed aluminum foil bag
[10] = 25° C./60% RH, 3 months, sealed aluminum foil bag
[11] = 40° C./75% RH, 1 month, sealed aluminum foil bag
[12] = 40° C./75% RH, 3 months, sealed aluminum foil bag
[13] = 25° C./60% RH, 2 months, sealed aluminum foil bag
[14] = 40° C./75% RH, 2 months, sealed aluminum foil bag
[15] = Illumination (4500 Lux), 5 days, open
[16] = Illumination (4500 Lux), 10 days, open

## O=C(O)c1ccc2nc(CN3CCC(c4cccc5c4O[C@@H](c4ccc(Cl)cc4F)CO5)CC3)n(C[C@@H]3CCO3)c2c1 [Crystal form A of tromethamine salt, 2-((4-((S)-3-(4-chloro-2-fluorophenyl)-2,3-dihydrobenzo[b][1,4]dioxan-5-yl)piperidin-1-yl)methyl)-1-(((S)-oxetan-2-yl)methyl)-1H-benzo[d]imidazole-6-carboxylic acid]
[1]
  hygroscopic weight gain 0.0% RH to 80.0% RH: 5.02%
  Crystal form after DVS: Unchanged
[2]
  chemical stability: slightly poor chemical stability
[2]; 40° C., 7 days, open
  % Purity: 96.1%
  Crystal form: Unchanged
[2]; 40° C., 14 days, open
  % Purity: 91.7%
  Crystal form: Unchanged
[2]; 40° C., 30 days, open
  % Purity: 87.4%
  Crystal form: Unchanged
[2]; 60° C., 7 days, open
  % Purity: 93.5%
  Crystal form: Unchanged
[2]; 60° C., 14 days, open
  % Purity: 88.6%
  Crystal form: Unchanged
[2]; 75% RH, 7 days, open
  % Purity: 99.4%
  Crystal form: Unchanged
[2]; 75% RH, 14 days, open
  % Purity: 99.4%
  Crystal form: Unchanged
[2]; 75% RH, 30 days, open
  % Purity: 99.3%
  Crystal form: Unchanged
[2]; 92.5% RH, 7 days, open
  % Purity: 99.3%
  Crystal form: Unchanged
[2]; 92.5% RH, 14 days, open
  % Purity: 99.0%
  Crystal form: Unchanged
[2]; 92.5% RH, 30 days, open
  % Purity: 98.6%
  Crystal form: Unchanged
[2]; [4]
  % Purity: 98.9%
  Crystal form: Unchanged
[2]; [5]
  % Purity: 97.6%
  Crystal form: Unchanged
[2]; [6]
  % Purity: 90.8%
  Crystal form: Unchanged
[2]; Initial condition, 0 days
  % Purity: 99.5%
[3]
  physical and chemical stability: good physical and chemical stability
[3]; [7]
  Crystal form: Unchanged
[3]; [8]
  Crystal form: Unchanged

## O=C(O)c1ccc2nc(CN3CCC(c4cccc5c4O[C@@H](c4ccc(Cl)cc4F)CO5)CC3)n(C[C@@H]3CCO3)c2c1 [Crystal form D of tromethamine salt, 2-((4-((S)-3-(4-chloro-2-fluorophenyl)-2,3-dihydrobenzo[b][1,4]dioxan-5-yl)piperidin-1-yl)methyl)-1-(((S)-oxetan-2-yl)methyl)-1H-benzo[d]imidazole-6-carboxylic acid]
[1]
  hygroscopic weight gain 0.0% RH to 80.0% RH: 2.45%
  Crystal form after DVS: Unchanged
[2]; 40° C., 7 days, open
  % Purity: 99.5%
  Crystal form: Unchanged
[2]; 40° C., 14 days, open
  % Purity: 99.3%
  Crystal form: Unchanged
[2]; 40° C., 30 days, open
  % Purity: 99.3%
  Crystal form: Unchanged
[2]; 60° C., 7 days, open
  % Purity: 99.4%
  Crystal form: Unchanged
[2]; 60° C., 14 days, open
  % Purity: 99.1%
  Crystal form: Unchanged
[2]; 60° C., 30 days, open
  % Purity: 99.0%
  Crystal form: Unchanged
[2]; 75% RH, 7 days, open
  % Purity: 99.7%
  Crystal form: Unchanged
[2]; 75% RH, 14 days, open
  % Purity: 99.6%
  Crystal form: Unchanged
[2]; 75% RH, 30 days, open
  % Purity: 99.6%
  Crystal form: Unchanged
[2]; 92.5% RH, 7 days, open
  % Purity: 99.5%
  Crystal form: Unchanged
[2]; 92.5% RH, 14 days, open
  % Purity: 99.4%
  Crystal form: Unchanged
[2]; 92.5% RH, 30 days, open
  % Purity: 99.0%
  Crystal form: Unchanged
[2]; [4]
  % Purity: 99.6%
  Crystal form: Unchanged
[2]; [5]
  % Purity: 99.6%
  Crystal form: Unchanged
[2]; [6]
  % Purity: 99.6%
  Crystal form: Unchanged
[2]; Initial condition, 0 days
  % Purity: 99.7%
[3]
  physical and chemical stability: good physical and chemical stability
[3]; [9]
  % Purity: 99.7%
[3]; [10]
  % Purity: 99.7%
[3]; [7]
  Crystal form: Unchanged
[3]; [11]
  % Purity: 99.5%
[3]; [12]
  % Purity: 99.1%
[3]; [8]
  Crystal form: Unchanged
[3]; Initial condition
  % Purity: 99.7%

## O=C(O)c1ccc2nc(CN3CCC(c4cccc5c4O[C@@H](c4ccc(Cl)cc4F)CO5)CC3)n(C[C@@H]3CCO3)c2c1 [Crystal form E of tromethamine salt, 2-((4-((S)-3-(4-chloro-2-fluorophenyl)-2,3-dihydrobenzo[b][1,4]dioxan-5-yl)piperidin-1-yl)methyl)-1-(((S)-oxetan-2-yl)methyl)-1H-benzo[d]imidazole-6-carboxylic acid]
[1]
  hygroscopic weight gain 0.0% RH to 80.0% RH: 7.27%
  Crystal form after DVS: Unchanged
[2]
  chemical stability: slightly poor chemical stability
  physical stability: slightly poor physical stability
[2]; 40° C., 7 days, open
  % Purity: 96.0%
  Crystal form: Unchanged
[2]; 40° C., 14 days, open
  % Purity: 93.6%
  Crystal form: Unchanged
[2]; 40° C., 30 days, open
  % Purity: 85.0%
  Crystal form: Unchanged
[2]; 60° C., 7 days, open
  % Purity: 94.8%
  Crystal form: Unchanged
[2]; 60° C., 30 days, open
  % Purity: 81.8%
  Crystal form: Amorphous form
[2]; 75% RH, 7 days, open
  % Purity: 98.3%
  Crystal form: Unchanged
[2]; 75% RH, 14 days, open
  % Purity: 98.4%
  Crystal form: Unchanged
[2]; 75% RH, 30 days, open
  % Purity: 98.3%
  Crystal form: Unchanged
[2]; 92.5% RH, 7 days, open
  % Purity: 98.2%
  Crystal form: Unchanged
[2]; 92.5% RH, 14 days, open
  % Purity: 98.2%
  Crystal form: Unchanged
[2]; 92.5% RH, 30 days, open
  % Purity: 98.1%
  Crystal form: Amorphous form
[2]; [4]
  % Purity: 98.1%
  Crystal form: Unchanged
[2]; [5]
  % Purity: 97.9%
  Crystal form: Unchanged
[2]; [6]
  % Purity: 95.5%
  Crystal form: Unchanged
[2]; Initial condition, 0 days
  % Purity: 98.3%
[3]
  physical and chemical stability: good physical and chemical stability
[3]; [9]
  % Purity: 98.2%
[3]; [13]
  % Purity: 98.3%
[3]; [10]
  % Purity: 98.1%
[3]; [7]
  Crystal form: Unchanged
[3]; [11]
  % Purity: 97.7%
[3]; [14]
  % Purity: 97.7%
[3]; [12]
  % Purity: 97.2%
[3]; [8]
  Crystal form: Unchanged
[3]; Initial condition
  % Purity: 98.3%

## O=C(O)c1ccc2nc(CN3CCC(c4cccc5c4O[C@@H](c4ccc(Cl)cc4F)CO5)CC3)n(C[C@@H]3CCO3)c2c1 [Crystal form I of hydrochloride salt, 2-((4-((S)-3-(4-chloro-2-fluorophenyl)-2,3-dihydrobenzo[b][1,4]dioxan-5-yl)piperidin-1-yl)methyl)-1-(((S)-oxetan-2-yl)methyl)-1H-benzo[d]imidazole-6-carboxylic acid]
[2]; 40° C., 5 days, open
  % Purity: 98.0%
  Crystal form: Unchanged
[2]; 40° C., 10 days, open
  % Purity: 98.1%
  Crystal form: Unchanged
[2]; 40° C., 30 days, open
  % Purity: 97.8%
  Crystal form: Unchanged
[2]; 60° C., 5 days, open
  % Purity: 97.6%
  Crystal form: Unchanged
[2]; 60° C., 10 days, open
  % Purity: 97.7%
  Crystal form: Unchanged
[2]; 60° C., 30 days, open
  % Purity: 97.7%
  Crystal form: Unchanged
[2]; 75% RH, 5 days, open
  % Purity: 98.1%
  Crystal form: Unchanged
[2]; 75% RH, 10 days, open
  % Purity: 98.0%
  Crystal form: Unchanged
[2]; 75% RH, 30 days, open
  % Purity: 98.1%
  Crystal form: Unchanged
[2]; 92.5% RH, 5 days, open
  % Purity: 98.1%
  Crystal form: Unchanged
[2]; 92.5% RH, 10 days, open
  % Purity: 97.4%
  Crystal form: Unchanged
[2]; 92.5% RH, 30 days, open
  % Purity: 96.9%
  Crystal form: Unchanged
[2]; [15]
  % Purity: 97.9%
  Crystal form: Unchanged
[2]; [16]
  % Purity: 98.1%
  Crystal form: Unchanged
[2]; [6]
  % Purity: 98.0%
  Crystal form: Unchanged
[2]; Initial condition, 0 days
  % Purity: 98.0%
[3]
  physical and chemical stability: good physical and chemical stability
[3]; [9]
  % Purity: 98.1%
[3]; [13]
  % Purity: 97.9%
[3]; [7]
  Crystal form: Unchanged
[3]; [11]
  % Purity: 97.8%
[3]; [14]
  % Purity: 97.8%
[3]; [8]
  Crystal form: Unchanged
[3]; Initial condition
  % Purity: 98.0%

## O=C(O)c1ccc2nc(CN3CCC(c4cccc5c4O[C@@H](c4ccc(Cl)cc4F)CO5)CC3)n(C[C@@H]3CCO3)c2c1 [Crystal form α of malate salt, 2-((4-((S)-3-(4-chloro-2-fluorophenyl)-2,3-dihydrobenzo[b][1,4]dioxan-5-yl)piperidin-1-yl)methyl)-1-(((S)-oxetan-2-yl)methyl)-1H-benzo[d]imidazole-6-carboxylic acid]
[2]; 92.5% RH, 5 days, open, listed as crystal form a of malate salt
  % Purity: 99.0%
[2]; Initial condition, 0 days, listed as crystal form a of malate salt
  % Purity: 99.0%
[3]; [12]
  % Purity: 97.1%
[3]; Initial condition
  % Purity: 99.0%
